From patent US10253052B2, “HBED-bisphosphonates, radiometal conjugates and their use as theranostic agents” (Five Eleven Pharma Inc., priority 2015, dated 2019)

Columns and labels:
[1] = In vivo biodistribution in mice; design: species or system normal CD-1 male mice; settings: iv
Method: Biodistribution experiments were performed by intravenously administering ^68Ga labeled 1a-h, 2, 3, BPAMD, and [^18F]NaF into normal, healthy male CD-1 mice (25-30 g). The injection activity was 20-30 μCi/animal. […] Organs of interest were harvested, weighed, and counts of radioactivity were measured by a gamma counter. The biodistribution of each sample was calculated as a percentage of the injected dose per gram of wet tissue weight (% ID/g). Tibia and femur bones were harvested and counted as bone samples.

[2] = In vitro binding to hydroxyapatite; settings: 20 mg hydroxyapatite in saline, 10 min at room temperature
Method: Hydroxyapatite (20 mg, Sigma-Aldrich, reagent grade powder) was incubated in isotonic saline (1 mL) for 24 h. Subsequently, either ^68Ga labeled 1a-h, 2, 3, BPAMD, or [^18F]NaF (1 μCi) was added to the hydroxyapatite suspension. After vortexing for 10 seconds, the suspension was incubated for 10 min at room temperature. The samples were then centrifuged at 10,000 rpm for 3 min and the supernatant was removed. The hydroxyapatite fraction was washed twice with saline (1 mL). Radioactivity in the combined supernatants and the hydroxyapatite fraction was measured using a gamma counter. The proportion of the ^68Ga complex binding to hydroxyapatite was determined as percent of ^68Ga absorbed to hydroxyapatite.

## C[C@H](NC(=O)CCc1ccc([O-])c(CN(CCN(CC(=O)[O-])Cc2cc(CCC(=O)NC(P(=O)(O)O)P(=O)(O)O)ccc2[O-])CC(=O)[O-])c1)C(=O)O.[68Ga+3] [[^68Ga]1d]
[1]; 2 min
  bone to blood ratio: 1.1
  bone to muscle ratio: 5.9
[1]; 2 min post injection
  Biodistribution: Blood: 9.08 ± 0.58 % dose/g
  Biodistribution: Bone: 10.1 ± 2.05 % dose/g
  Biodistribution: Brain: 0.29 ± 0.05 % dose/g
  Biodistribution: Heart: 2.99 ± 0.26 % dose/g
  Biodistribution: Kidney: 25.3 ± 3.89 % dose/g
  Biodistribution: Liver: 1.89 ± 0.16 % dose/g
  Biodistribution: Lung: 4.83 ± 0.25 % dose/g
  Biodistribution: Muscle: 1.72 ± 0.15 % dose/g
  Biodistribution: Pancreas: 1.53 ± 0.14 % dose/g
  Biodistribution: Skin: 2.39 ± 0.13 % dose/g
  Biodistribution: Spleen: 1.72 ± 0.24 % dose/g
[1]; 30 min
  bone to blood ratio: 29
  bone to muscle ratio: 64
[1]; 30 min (0.5 hr) post injection
  Biodistribution: Blood: 0.53 ± 0.13 % dose/g
  Biodistribution: Bone: 15.3 ± 1.26 % dose/g
  Biodistribution: Brain: 0.03 ± 0.00 % dose/g
  Biodistribution: Heart: 0.26 ± 0.06 % dose/g
  Biodistribution: Kidney: 2.14 ± 0.60 % dose/g
  Biodistribution: Liver: 0.26 ± 0.09 % dose/g
  Biodistribution: Lung: 0.45 ± 0.10 % dose/g
  Biodistribution: Muscle: 0.24 ± 0.06 % dose/g
  Biodistribution: Pancreas: 0.21 ± 0.12 % dose/g
  Biodistribution: Skin: 0.42 ± 0.10 % dose/g
  Biodistribution: Spleen: 0.21 ± 0.07 % dose/g
[1]; 60 min
  bone to blood ratio: 144
  bone to muscle ratio: 235
[1]; 60 min (1 hr) post injection
  Biodistribution: Blood: 0.10 ± 0.01 % dose/g
  Biodistribution: Bone: 14.7 ± 0.50 % dose/g
  Biodistribution: Brain: 0.01 ± 0.00 % dose/g
  Biodistribution: Heart: 0.08 ± 0.01 % dose/g
  Biodistribution: Kidney: 1.05 ± 0.17 % dose/g
  Biodistribution: Liver: 0.12 ± 0.01 % dose/g
  Biodistribution: Lung: 0.17 ± 0.01 % dose/g
  Biodistribution: Muscle: 0.06 ± 0.00 % dose/g
  Biodistribution: Pancreas: 0.06 ± 0.01 % dose/g
  Biodistribution: Skin: 0.13 ± 0.01 % dose/g
  Biodistribution: Spleen: 0.06 ± 0.00 % dose/g
[1]; 120 min
  bone to blood ratio: 278
  bone to muscle ratio: 417
[1]; 120 min post injection
  Biodistribution: Blood: 0.06 ± 0.02 % dose/g
  Biodistribution: Bone: 17.0 ± 1.10 % dose/g
  Biodistribution: Brain: 0.00 ± 0.00 % dose/g
  Biodistribution: Heart: 0.06 ± 0.01 % dose/g
  Biodistribution: Kidney: 0.91 ± 0.15 % dose/g
  Biodistribution: Liver: 0.10 ± 0.01 % dose/g
  Biodistribution: Lung: 0.09 ± 0.02 % dose/g
  Biodistribution: Muscle: 0.04 ± 0.01 % dose/g
  Biodistribution: Pancreas: 0.04 ± 0.01 % dose/g
  Biodistribution: Skin: 0.09 ± 0.01 % dose/g
  Biodistribution: Spleen: 0.05 ± 0.01 % dose/g
[2]
  Hydroxyapatite Binding (%): 95.1 ± 0.5%
